In US6610675B1 (priority 1980, dated 2003):

Key:
Type in all cases: in vivo, rat
[1] = test system: ear swelling induced by croton oil; test: Ear edema test; details: 1 mg/kg topical, 6 hr
Description: The test animals were Sprague/Dawley rats weighing approximately 150 grams each. In treatment groups, selected amounts of the test compound were dissolved in acetone containing 5% croton oil and 50 microliters of the solution were applied to the inner surface of the right ear of the rats. A control group was identically treated with vehicle only, i.e. 5% croton oil in acetone. Six hours after croton oil challenge, a constant region of each ear was removed by dissection under anesthesia. Then, 48 hours after steroid treatment, the animals were sacrificed and the thymi and adrenals were removed and weighed. The test results showing the inhibitory effect of topically applied steroids on the ear swelling induced by croton oil are summarized in Table II below.

thymus weight in rats = test: Thymus inhibition testing (subcutaneous administration); details: for Body weight gain / Thymus / Thymus Inhibition: Table VII, three days
Outline: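 Male Sprague-Dawley rats were dosed systemically. On the fifth day, 48 hours after the last treatment, animals were sacrificed and thymus weights recorded.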

[2] = test system: granulation tissue formation caused by implantation of cotton pellets; test: Granuloma formation test (local cotton pellet granuloma assay)
Description: The test compound was dissolved in acetone and aliquots of varying concentrations were injected into cotton pellets. The pellets were dried and then one pellet was implanted beneath the skin of each test rat. Six days later, the animals were sacrificed and the granulation tissue (granuloma) which formed in and around the implanted pellet was removed, dried and weighed. In addition, the thymi and adrenals were removed and weighed.

## CCCC(=O)O[C@]1(C(=O)CO)CC[C@H]2[C@@H]3CCC4=CC(=O)CC[C@]4(C)[C@H]3[C@@H](O)C[C@@]21C [Hydrocortisone 17-butyrate, reference compound]
[1]
  Ear Weight, % Increase: −3.6 ± 3.5 %
  Ear Weight, % Inhibition: 106.0%
  Ear Weight, Inflamed Ear: 50.0 ± 2.3 mg
  Ear Weight, Untreated Ear: 52.0 ± 2.5 mg
Thymus weight in rats; 0.3 mg/kg/day s.c.
  Body weight gain: 17.0 ± 0.8 g
  Thymus: 441 ± 27 mg
  Thymus Inhibition: 6.4%
Thymus weight in rats; 1 mg/kg/day s.c.
  Body weight gain: 11.8 ± 0.8 g
  Thymus: 323 ± 16 mg
  Thymus Inhibition: 31.4%
Thymus weight in rats; 3 mg/kg/day s.c.
  Body weight gain: 7.3 ± 0.5 g
  Thymus: 166 ± 5 mg
  Thymus Inhibition: 64.8%
Thymus weight in rats; 10 mg/kg/day s.c.
  Body weight gain: -5.0 ± 1.1 g
  Thymus: 65 ± 5 mg
  Thymus Inhibition: 86.2%
Thymus weight in rats; Table X, dose required to achieve 40% inhibition of thymi weight, subcutaneous
  TED40: 1.3 mg
Thymus weight in rats; Table X, dose required to achieve 50% inhibition of thymi weight, subcutaneous
  TED50: 2.0 mg
Thymus weight in rats; Table XII, thymus inhibition effect, subcutaneously
  TED40: 1.3 mg/kg
[2]; Table III, 1 mg/pellet
  Body wt. gain: 33.4 ± 1.4 g
  Granulation tissue Dry wt.: 32.2 ± 5.0 mg/100 g body wt.
  Granulation tissue Inhibition: 26.3%
[2]; Table III, 3 mg/pellet
  Body wt. gain: 15.9 ± 1.4 g
  Granulation tissue Dry wt.: 21.6 ± 2.2 mg/100 g body wt.
  Granulation tissue Inhibition: 50.6%
[2]; Table III, 10 mg/pellet
  Body wt. gain: 4.9 ± 1.0 g
  Granulation tissue Dry wt.: 29.2 ± 3.1 mg/100 g body wt.
  Granulation tissue Inhibition: 33.2%
[2]; Table IV, 300 μg/pellet
  Body wt. gain: 26.2 ± 1.7 g
  Granulation tissue Dry wt.: 34.0 ± 5.3 mg
  Granulation tissue Dry wt. Inhibition: 58.1%
  Granulation tissue Wet wt.: 333 ± 21 mg
  Granulation tissue Wet wt. Inhibition: 41.2%
  Thymus wt.: 353 ± 37 mg
  Thymus wt. (Decrease %): (20.7) %
[2]; Table IV, 1000 μg/pellet
  Body wt. gain: 26.2 ± 1.2 g
  Granulation tissue Dry wt.: 35.3 ± 4.2 mg
  Granulation tissue Dry wt. Inhibition: 56.5%
  Granulation tissue Wet wt.: 366 ± 24 mg
  Granulation tissue Wet wt. Inhibition: 35.3%
  Thymus wt.: 99 ± 7 mg
  Thymus wt. (Decrease %): (77.8) %
[2]; Table IV, 3000 μg/pellet
  Body wt. gain: 6.7 ± 2.2 g
  Granulation tissue Dry wt.: 28.0 ± 2.7 mg
  Granulation tissue Dry wt. Inhibition: 65.5%
  Granulation tissue Wet wt.: 329 ± 14 mg
  Granulation tissue Wet wt. Inhibition: 41.9%
  Thymus wt.: 58 ± 5 mg
  Thymus wt. (Decrease %): (87.0) %
[2]; Table IV, 10000 μg/pellet
  Body wt. gain: -2.0 ± 2.4 g
  Granulation tissue Dry wt.: 27.2 ± 2.4 mg
  Granulation tissue Dry wt. Inhibition: 66.5%
  Granulation tissue Wet wt.: 311 ± 7 mg
  Granulation tissue Wet wt. Inhibition: 45.1%
  Thymus wt.: 46 ± 7 mg
  Thymus wt. (Decrease %): (89.7) %
[2]; Table XII, anti-inflammatory effect in cotton pellet granuloma
  ED50: 480 μg/pellet
[2]; dose causing 60% inhibition of granulation tissue weight
  ED60: 1015 μg/pellet
